# Test results taken from patent US20120329837A1, “CATHEPSIN INHIBITORS FOR TREATING MICROGLIA-MEDIATED NEURON LOSS IN THE CENTRAL NERVOUS SYSTEM” (ViroBay, Inc., priority 2011, published 2012).
# Legend:
# [1] = molecular target: T1, Human cathepsin S (Homo sapiens, UniProt P25774); assay: Cathepsin S Assay (Z-Val-Val-Arg-AMC hydrolysis); assay type: biochemical
# Protocol: Solutions of test compounds in varying concentrations were prepared in 10 μL of dimethyl sulfoxide (DMSO) and then diluted into assay buffer (40 μL, comprising: MES, 50 mM (pH 6.5); EDTA, 2.5 mM; and NaCl, 100 mM); β-mercaptoethanol, 2.5 mM; and BSA, […]. Human cathepsin S (0.05 pMoles in 25 μL of assay buffer) was added to the dilutions. The assay solutions were mixed for 5-10 seconds on a shaker plate, covered and incubated for 30 min at room temperature. Z-Val-Val-Arg-AMC (4 nMoles in 25 μL of assay buffer containing 10% DMSO) was added to the assay solutions and hydrolysis was followed spectrophotometrically (at λ 460 nm) for 5 min. Apparent inhibition constants (Ki) were calculated from the enzyme progress curves using standard mathematical models.
# [2] = molecular target: T1, Human cathepsin S; assay: Cathepsin S Assay (Z-Val-Val-Arg-AMC hydrolysis); assay type: biochemical; details: Table 2; Enzyme CatS
# T1 sequence (P25774 115-331): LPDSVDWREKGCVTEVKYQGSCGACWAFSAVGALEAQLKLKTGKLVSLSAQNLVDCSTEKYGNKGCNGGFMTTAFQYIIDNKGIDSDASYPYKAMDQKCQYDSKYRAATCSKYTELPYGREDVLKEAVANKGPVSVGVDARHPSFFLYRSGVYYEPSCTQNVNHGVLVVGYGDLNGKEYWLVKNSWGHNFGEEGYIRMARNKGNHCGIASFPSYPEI
smiles,measurement,setting,value
CC(C)CS(=O)(=O)C[C@H](N[C@@H](c1ccc(F)cc1)C(F)(F)F)C(=O)NC1(C#N)CC1,Ki,[1]; text statement for drawn compounds,< 0.01 µM
N#CC1(NC(=O)[C@H](CC(F)(F)CC2CC2)N[C@@H](c2ccccc2)C(F)(F)F)CC1,IC50,[2],< 0.01 µM
COc1ccc([C@H](N[C@@H](CC(F)(F)CC2CC2)C(=O)NC2(C#N)CC2)C(F)(F)F)cc1,IC50,[2],< 0.01 µM
N#CC1(NC(=O)[C@H](CC(F)(F)CC2CC2)N[C@@H](c2ccc(F)c(F)c2)C(F)(F)F)CC1,IC50,[2],< 0.01 µM
N#CC1(NC(=O)[C@H](CC(F)(F)CC2CC2)N[C@@H](c2ccc(C(F)(F)F)cc2)C(F)(F)F)CC1,IC50,[2],< 0.01 µM
N#CC1(NC(=O)[C@H](CC(F)(F)Cc2ccccc2)N[C@@H](c2ccc(F)cc2)C(F)(F)F)CC1,Ki,[1]; Table 3,< 0.02 µM
N#CC1(NC(=O)[C@H](CC(F)(F)c2ccccc2)N[C@@H](c2ccc(F)cc2)C(F)(F)F)CC1,Ki,[1]; Table 3,< 0.02 µM
N#CC1(NC(=O)[C@H](CC(F)(F)CC2CC2)N[C@@H](c2ccc(F)cc2)C(F)(F)F)CC1,Ki,[1]; Table 3,< 0.02 µM
CCC(F)(F)CC[C@H](N[C@@H](c1ccc(F)cc1)C(F)(F)F)C(=O)NC1(C#N)CC1,Ki,[1]; Table 3,< 0.02 µM
CCC(F)(F)C[C@H](N[C@@H](c1ccc(F)cc1)C(F)(F)F)C(=O)NC1(C#N)CC1 [drawing 30],Ki,[1]; Table 1,< 0.01 µM
CC(C)CC(F)(F)C[C@H](N[C@@H](c1ccc(F)cc1)C(F)(F)F)C(=O)NC1(C#N)CC1 [drawing 31],Ki,[1]; Table 1,< 0.01 µM
CCCC(F)(F)C[C@H](N[C@@H](c1ccc(F)cc1)C(F)(F)F)C(=O)NC1(C#N)CC1 [drawing 32],Ki,[1]; Table 1,< 0.01 µM
CCCCC(F)(F)C[C@H](N[C@@H](c1ccc(F)cc1)C(F)(F)F)C(=O)NC1(C#N)CC1 [drawing 33],Ki,[1]; Table 1,< 0.01 µM
CC(C)CC(F)(F)C[C@H](N[C@@H](c1ccc(F)cc1)C(F)(F)F)C(=O)NC1(C#N)CC1 [drawing 40],Ki,[1]; Table 3,< 0.02 µM
CCC(F)(F)C[C@H](N[C@@H](c1ccc(F)cc1)C(F)(F)F)C(=O)NC1(C#N)CC1 [drawing 42],Ki,[1]; Table 3,< 0.02 µM
CCCC(F)(F)C[C@H](N[C@@H](c1ccc(F)cc1)C(F)(F)F)C(=O)NC1(C#N)CC1 [drawing 43],Ki,[1]; Table 3,< 0.02 µM
CCCCC(F)(F)C[C@H](N[C@@H](c1ccc(F)cc1)C(F)(F)F)C(=O)NC1(C#N)CC1 [drawing 44],Ki,[1]; Table 3,< 0.02 µM
